“Also recorded” adds a separate entry of the source.
What was measured:
Assay type in all cases: cell-based
pATM = assay: Western blotting of treated MCF7 cells, pATM; settings: 24 hour treatment
Method: (§1) MCF-7 are seeded into 6-well dishes and treated with various doses of (−)-lomaiviticin A (LA), in the absence and presence of ionizing radiation (IR) at a dose rate of 2.4295 Gy/min (2 Gy, X-Ray) for 24 hour. After treatment, the cells were harvested for lysis in AZ lysis buffer ([…] Tris, 250 mM NaCl, 1% Igepal, 0.1% SDS, 5 mM EDTA, 10 mM Na4P2O7, 10 mM NaF) containing protease and phosphatase inhibitors. Western blotting was performed (FIG. 26).
(§2) Primary antibodies used were: mouse monoclonal anti-Ser1981-pATM (10H11.E12, Millipore, Temecula, Calif.), mouse monoclonal anti-vinculin (SPM227, Abcam, Cambridge, Mass.), rabbit polyclonal anti-Ser428-pATR (Cell Signaling, Danvers, Mass.), rabbit polyclonal anti-Thr68-pCHK2 (Cell Signaling), rabbit monoclonal anti-CHK2 (D9C6, Cell Signaling), rabbit monoclonal anti-Ser345-pCHK1 (Cell Signaling), and rabbit monoclonal anti-CHK1 (E250, Millipore).
(§3) Proteins were visualized with horseradish peroxidase-conjugated anti-mouse and anti-rabbit immunoglobulin G (Thermo Scientific, Rockford, Ill.) and the SuperSignal West Pico Chemiluminescent Substrate detection system (Thermo Scientific).

hypoxic MCF7 cells = assay: Chronogenic survival assay in hypoxic versus normoxic MCF7 cells; settings: hypoxia vs normoxia, 24 hours treatment
Method: (§4) A number of cancer cells lines were tested for effectness of (−)-lomaiviticin A or MK7-206. These cell lines are DNA damage response deficient cells (DDR-deficient cancer cells, indicated in FIGS. 16-24) or hypoxic cells (indicated in FIG. 25). The indicated cells were seeded at 500 cells per well in 6-23ll dishes and treated with various concentrations of (−)-lomaiviticin A at the indicated concentrations indicated in FIGS. 16-25 for a period of 24 hours, after which time the media containing the inhibitor was removed and replaced with fresh media. Colonies were fixed with 0.9% saline solution and stained with crystal violet 8-14 days later. Colonies consistent of greater than 50 cells were counted. Experiments utilizing MK7-206 for the cell lines which are presented in attached FIG. 28 (Table 2) and FIG. 30 (Table 4) were also conducted (at higher concentrations than for (−)lomaiviticin A).

hypoxic A549 cells = assay: Chronogenic survival assay in hypoxic versus normoxic A549 cells; settings: hypoxia vs normoxia, 24 hours treatment
Method: as §4

pATR = assay: Western blotting of treated MCF7 cells, pATR; settings: 24 hour treatment, listed as LA
Method: as §1, §2, §3

pCHK1 = assay: Western blotting of treated MCF7 cells, pCHK1; settings: 24 hour treatment, listed as LA
Method: as §1, §2, §3

pCHK2 = assay: Western blotting of treated MCF7 cells, pCHK2; settings: 24 hour treatment
Method: as §1, §2, §3

[1] = system: DDR-deficient cancer cells (BRCA2, pten, KU80 and DNApk); assay: Chronogenic survival assay in DNA damage response deficient cancer cell lines
Method: as §4

## (−)-lomaiviticin A
pATM
  change in pATM (western blot): increase
Hypoxic MCF7 cells
  sensitivity of hypoxic cells compared with normoxic cells: more sensitive
Hypoxic A549 cells
  sensitivity of hypoxic cells compared with normoxic cells: more sensitive
pATR
  change in pATR (western blot): no increase
pCHK1
  change in pCHK1 (western blot): no increase
pCHK2
  change in pCHK2 (western blot): increase
[1]; DDR-deficient (BRCA2, pten, KU80, DNApk) cells, 24 hours treatment, colonies stained 8-14 days later
  sensitivity of DDR-deficient cells to the compound: more sensitive; also recorded: particularly susceptible
[1]; FIGS. 27-30
  efficacy against cell lines in which DNA damage repair systems are deficient or down regulated: excellent efficacy

— patent publication US9346846B1, “Anti-cancer compounds and methods for treating cancer” (YALE UNIVERSITY, priority 2013, dated 2016)
